Experimental findings from US8586638B2, “Parakeratosis inhibitor and skin preparation for external use” (priority 2003, dated 2013) are described below.

Structures are written as SMILES. Where a SMILES comes first, the peptide text is derived from it.

Experiment [1] deals with parakeratosis and skin roughness caused by oleic acid on the back of hairless mice. Description: Parakeratosis inhibition effect test: oleic acid applied to the back of hairless mice, visual skin roughness and parakeratosis level. The class given is in vivo, hairless mice (HR-1). Set-up: key to Evaluation Visual (mean of 4 mice), skin roughness: 0.0 = no roughness, 2.0 = control application; 0.25 steps. Particulars: for Evaluation Parakeratosis (mean of 4 mice): control 2.0; for Evaluation Visual (mean of 4 mice), skin roughness: score 0.0 no roughness, 2.0 control; for effect of inhibiting parakeratosis (conclusion from Table 4) / effect of inhibiting parakeratosis (conclusion from Table 1): hairless mice, oleic acid; for effect of inhibiting parakeratosis (conclusion from Table 4): fourth embodiment; for effect of inhibiting parakeratosis (conclusion from Table 1): first embodiment. The method, then: A 3 weight % water solution (including 30 weight % ethanol) was prepared as the evaluation specimen of the glycine derivatives in accordance with the invention 1. The pH was regulated to the range between 7.0 to 7.5, by using hydrochloric acid and sodium hydroxide. When the solubility was low, the solution was adjusted accordingly.
100 microliters of 10 weight % oleic acid (solvent: ethanol) was applied to the back of hairless mice (HR-1, Hoshino laboratory animals). Thereafter, 100 microliters of sample solution was applied (glycine derivatives in accordance with said invention 1) at each time. This procedure was repeated for 3 days. The day after the application, the skin condition of the backs was observed by using a CCD camera to evaluate the skin roughness (stratified ablation of the skin surface stratum corneum and red spots). The skin condition was evaluated visually, with scoring the skin condition of control application to 2.0 and the skin condition of no roughness to 0.0, in a 0.25 point step in response to the skin condition. At the same time, the skin surface stratum corneum of the back of hairless mice was peeled off by using a tape for staining the nucleus with haematoxylin to observe the degrees of parakeratosis (parakeratosis level) and evaluate in 0.25 step in the range from 1.0 to 3.0. The higher evaluation points indicates the larger number of parakeratotic corneocytes count, i.e., severer parakeratosis.
The samples to be evaluated of the glycine derivatives and the salts thereof as well as the aminosulfuric acid derivatives and the salts thereof in accordance with the invention 2 were prepared mainly 3 weight % solution (including 30 weight % ethanol, excluding Hydantoic acid and ACES which include 20 weight % ethanol). pH was regulated by using hydrochloric acid or sodium hydroxide to be 7.0 to 7.5. When the solubility was low, then the solution was prepared accordingly.
100 microliters of 10 weight % oleic acid (solvent: ethanol) was applied to the back of Hairless mice (HR-1, Hoshino laboratory animals) Thereafter, 100 microliters of sample solution (glycine derivatives in accordance with the invention 2) was applied thereon at each time. This procedure was repeated for 3 days. The day after the application, the skin condition of the backs was observed by using a CCD camera to evaluate the skin roughness (stratified ablation of the skin surface stratum corneum and red spots). The skin condition was evaluated visually, with scoring the skin condition of control application to 2.0 and the skin condition of no roughness to 0.0, in a 0.25 point step in response to the skin condition. At the same time, the skin surface stratum corneum of the back of hairless mice was peeled off by using a tape for staining the nucleus with haematoxylin to observe the degrees of parakeratosis and evaluate in 0.25 step in the range from 1.0 to 3.0. The higher evaluation points indicates the larger number of parakeratotic corneocytes count, i.e., severer parakeratosis.

In experiment [2] the test system is skin roughness caused by oleic acid on the back of hairless mice. Description: Inhibitory effect on skin roughness by the application of oleic acid (TEWL value). The class given is in vivo, hairless mice (HR-1). Also on record: ΔTEWL: unit not given here. The note with it: for ΔTEWL: after 10 weight % oleic acid, 3 days, four mice per group, control 12.0. As to the method: To study the inhibitory effect on the skin roughness by the application of oleic acid by the glycine derivatives and the salts thereof as well as the aminosulfuric acid derivatives and the salts thereof in accordance with the invention 2, the […] (TEWL value) before and after the application was measured to compare the difference therebetween with the value of control (control solution) in order to determine the effect. The preparation of samples and the application procedure were in accordance with the embodiment 4. The TEWL value was measured by means of TEWA meter TM210 (Courage+Khazaka Inc.).
100 microliters of 10 weight % oleic acid (solvent: ethanol) was applied to the back of hairless mice (HR-1, four in each group). Thereafter, 100 microliters of sample solutions (glycine derivatives and the salts thereof as well as the aminosulfuric acid derivatives and the salts thereof) in accordance with the invention 2 were applied at each time. This procedure was repeated for 3 days. The day after the application, TEWL value of the back of mice was measured and the values were averaged. The larger delta-TEWL value indicates severer aggravation of skin roughness.

Setting [3] is: Table 4, sample 3 weight % in aqueous 30 weight % ethanol (hydantoic acid: 20 weight % ethanol), range 1.0 to 3.0, higher = severer.
Where [4] appears, read: Table 4, sample 3 weight % in aqueous 30 weight % ethanol (hydantoic acid: 20 weight % ethanol).
[5] abbreviates: sample 3 weight %, larger = severer roughness.
[6] abbreviates: sample 3 weight % in aqueous 30 weight % ethanol, after 10 weight % oleic acid, 3 days, range 1.0 to 3.0, higher = severer.
Where [7] appears, read: sample 3 weight % in aqueous 30 weight % ethanol, after 10 weight % oleic acid, 3 days.

For `O=S(=O)(O)CCCCNC1CCCCC1` [CABS, 4-(cyclohexylamino)-1-butane sulfonic acid, reference compound], the “Evaluation Parakeratosis (mean of 4 mice)” value (“Evaluation Parakeratosis” for short) in experiment [1] (setting [3]) came to 2.0. Also, in experiment [1] (setting [4]), the “Evaluation Visual (mean of 4 mice), skin roughness” value (“Evaluation Visual (mean of 4 mice)” for short) is reported as 1.9. The “effect of inhibiting parakeratosis (conclusion from Table 4)” value in experiment [1] is listed as “effect was not recognized”. In experiment [2] (setting [5]), this compound yielded a ΔTEWL of 11.9.

Take `CN(C)CC(=O)O` [N,N-dimethylglycine, reference compound]: the “Evaluation Parakeratosis” value in experiment [1] (setting [3]) was 2.3. Further, the “Evaluation Visual (mean of 4 mice)” value in experiment [1] (setting [4]) is on record as 2.1. This compound had a ΔTEWL in experiment [2] (setting [5]) of 15.5.

Take `CC(=O)NCC(=O)O` [N-acetylglycine, reference compound]: the “Evaluation Parakeratosis” value in experiment [1] (setting [3]) was found to be 2.0. Further, in experiment [1] (setting [4]), the “Evaluation Visual (mean of 4 mice)” value is reported as 1.9. The same compound returned a ΔTEWL in experiment [2] (setting [5]) of 14.7.

On to `CCCCOC(=O)CN.Cl` [glycine n-butyl ester HCL, glycine n-butyl ester hydrochloride], for which the “effect of inhibiting parakeratosis (conclusion from Table 1)” value in experiment [1] is on record as “have the effect of inhibiting parakeratosis”. In addition, the “Evaluation Parakeratosis” value in experiment [1] (setting [6]) was found to be 1.5. In addition, in experiment [1] (setting [7]), the “Evaluation Visual (mean of 4 mice)” value is 1.6.

For `O=S(=O)(O)CCCN1CCOCC1` [MOPS, 3-(N-morpholino)propane sulfonic acid, reference compound], the “Evaluation Parakeratosis” value in experiment [1] (setting [3]) is recorded as 2.1. For the same compound, in experiment [1] (setting [4]), the “Evaluation Visual (mean of 4 mice)” value worked out at 1.9. Moreover, the “effect of inhibiting parakeratosis (conclusion from Table 4)” value in experiment [1] is recorded as “effect was not recognized”. Further, the ΔTEWL in experiment [2] (setting [5]) is 13.2.

On to `O=C(O)C1CCNCC1` [isonipecotinic acid, isonipecotic acid], for which, in experiment [1], the “effect of inhibiting parakeratosis (conclusion from Table 1)” value is reported as “have the effect of inhibiting parakeratosis”. Moreover, the “Evaluation Parakeratosis” value in experiment [1] (setting [6]) is reported as 1.5. Besides, in experiment [1] (setting [7]), the “Evaluation Visual (mean of 4 mice)” value worked out at 1.6.

With `N=C(N)N1CCC(C(=O)O)CC1` [guanidinoisonipecotinic acid, reference compound], in experiment [1] (setting [6]), the “Evaluation Parakeratosis” value turned out to be 2.2. Besides, in experiment [1] (setting [7]), the “Evaluation Visual (mean of 4 mice)” value stood at 2.0.

As for `O=C(O)CNC(CO)(CO)CO` [tricine, reference compound], the “Evaluation Parakeratosis” value in experiment [1] (Table 4, sample 2 weight % in aqueous 30 weight % ethanol, range 1.0 to 3.0) is listed as 2.1. Also, the “Evaluation Visual (mean of 4 mice)” value in experiment [1] (Table 4, sample 2 weight % in aqueous 30 weight % ethanol) amounted to 2.0. Besides, the ΔTEWL in experiment [2] (sample 2 weight %) is on record as 12.2.

Consider `NCC(N)=O` [glycine amide, reference compound], for which, in experiment [1] (setting [6]), the “Evaluation Parakeratosis” value worked out at 2.1. Also, the “Evaluation Visual (mean of 4 mice)” value in experiment [1] (setting [7]) is 1.9.

Regarding `CC(=O)N[C@@H](CC(=O)O)C(=O)O` [N-acetyl-L-aspartic acid], the “effect of inhibiting parakeratosis (conclusion from Table 1)” value in experiment [1] is on record as “have the effect of inhibiting parakeratosis”. Moreover, in experiment [1] (setting [6]), the “Evaluation Parakeratosis” value is on record as 1.5. In addition, in experiment [1] (setting [7]), the “Evaluation Visual (mean of 4 mice)” value was found to be 1.4.

Regarding `O=C(O)CC[C@H](NS(=O)(=O)c1ccccc1)C(=O)O` [N-benzenesulfonyl-L-glutamic acid, N-benzene-sulfonyl-L-glutamic acid], in experiment [1], the “effect of inhibiting parakeratosis (conclusion from Table 1)” value is listed as “have the effect of inhibiting parakeratosis”. The “Evaluation Parakeratosis” value in experiment [1] (setting [6]) came out at 1.6. In experiment [1] (setting [7]), the “Evaluation Visual (mean of 4 mice)” value worked out at 1.6.

For `O=C(O)CN(CC(=O)O)CC(=O)O` [nitrilotriacetate, nitrilotriacetic acid, reference compound], in experiment [1] (Table 4, sample 0.4 weight % in aqueous 30 weight % ethanol, range 1.0 to 3.0), the “Evaluation Parakeratosis” value came to 2.0. Moreover, the “Evaluation Visual (mean of 4 mice)” value in experiment [1] (Table 4, sample 0.4 weight % in aqueous 30 weight % ethanol) turned out to be 1.9. Besides, the ΔTEWL in experiment [2] (sample 0.4 weight %) is given as 11.5.

For the compound `Cl.NCC(N)=O` [glycine-amide HCL, glycine-amide hydrochloride, reference compound], in experiment [1] (setting [3]), the “Evaluation Parakeratosis” value amounted to 2.0. Moreover, in experiment [1] (setting [4]), the “Evaluation Visual (mean of 4 mice)” value was found to be 1.9. In addition, the “effect of inhibiting parakeratosis (conclusion from Table 4)” value in experiment [1] is listed as “did not exhibit such effect”. The ΔTEWL in experiment [2] (setting [5]) worked out at 12.4.

Take `NCC(=O)NCC(=O)NCC(=O)O` [glycyl-glycylglycine, reference compound] (H-Gly-Gly-Gly-OH): the “Evaluation Parakeratosis” value in experiment [1] (sample 1 weight % in aqueous 30 weight % ethanol, after 10 weight % oleic acid, 3 days, range 1.0 to 3.0, higher = severer) was 2.0. Besides, the “Evaluation Visual (mean of 4 mice)” value in experiment [1] (sample 1 weight % in aqueous 30 weight % ethanol, after 10 weight % oleic acid, 3 days) came out at 1.9.

For the compound `CCOC(=O)CN.Cl` [glycine ethyl ester HCL, glycine ethyl ester hydrochloride], in experiment [1], the “effect of inhibiting parakeratosis (conclusion from Table 1)” value is “have the effect of inhibiting parakeratosis”. The “Evaluation Parakeratosis” value in experiment [1] (setting [6]) was 1.1. In experiment [1] (setting [7]), the “Evaluation Visual (mean of 4 mice)” value turned out to be 1.2.

For the compound `CCCOC(=O)CN.Cl` [glycine n-propyl ester HCL, glycine n-propyl ester hydrochloride], the “effect of inhibiting parakeratosis (conclusion from Table 1)” value in experiment [1] was “have the effect of inhibiting parakeratosis”. Also, the “Evaluation Parakeratosis” value in experiment [1] (setting [6]) came to 1.4. For the same compound, the “Evaluation Visual (mean of 4 mice)” value in experiment [1] (setting [7]) is listed as 1.4.

On to `CCOC(=O)CCN.Cl` [beta-alanine ethyl ester HCL, beta-alanine ethyl-ester hydrochloride], for which, in experiment [1], the “effect of inhibiting parakeratosis (conclusion from Table 1)” value is reported as “have the effect of inhibiting parakeratosis”. Further, in experiment [1] (setting [6]), the “Evaluation Parakeratosis” value is 1.2. Besides, the “Evaluation Visual (mean of 4 mice)” value in experiment [1] (setting [7]) was 1.0.

On to `O=C(O)CNC(=O)c1cccnc1` [nicotinoylglycine, N-nicotinoylglycine], for which the “decrease of delta-TEWL value as compared to the control solution (conclusion from Table 6)” value in experiment [2] (hairless mice, oleic acid, seventh embodiment) is on record as “significant decrease of delta-TEWL value”. The compound also displayed a ΔTEWL in experiment [2] (sample 0.1 weight %) of 7.4.

`Cl.NCC(=O)OCc1ccccc1` [glycine benzyl ester HCL, glycine benzyl ester hydrochloride]: the “effect of inhibiting parakeratosis (conclusion from Table 1)” value in experiment [1] is reported as “have the effect of inhibiting parakeratosis”. In addition, the “Evaluation Parakeratosis” value in experiment [1] (setting [6]) turned out to be 1.2. Moreover, in experiment [1] (setting [7]), the “Evaluation Visual (mean of 4 mice)” value was 1.3.

Regarding `CC(C)(C)OC(=O)CN.Cl` [glycine t-butyl ester HCL, glycine t-butyl ester hydrochloride], the “effect of inhibiting parakeratosis (conclusion from Table 1)” value in experiment [1] is recorded as “have the effect of inhibiting parakeratosis”. Besides, in experiment [1] (setting [6]), the “Evaluation Parakeratosis” value was 1.5. In experiment [1] (setting [7]), the “Evaluation Visual (mean of 4 mice)” value turned out to be 1.6.

On to `O=C(O)CC[C@H](NC(=O)c1ccccc1)C(=O)O` [N-benzoyl-L-glutamic acid], for which the “effect of inhibiting parakeratosis (conclusion from Table 1)” value in experiment [1] is “have the effect of inhibiting parakeratosis”. The “Evaluation Parakeratosis” value in experiment [1] (setting [6]) turned out to be 1.6. Moreover, in experiment [1] (setting [7]), the “Evaluation Visual (mean of 4 mice)” value is listed as 1.7.
